According to patent US7803801B2, “Aminopyridine compounds having Syk inhibitory activity” (Japan Tobacco, Inc., priority 2005, dated 2010):
pIC50: −log10 of the molar value. Counter-ions that a name gives are not always drawn. Like-named read-outs stand apart in the source and are kept apart here.

Columns and labels:
[1] = molecular target: GST-Syk Full Protein (human) (Homo sapiens, UniProt P43405); test: Syk kinase inhibition test (HTRF method); format: biochemical
Method in brief: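 Human GST-Syk full-length (6.4 nM) phosphorylated biotin-EDPDYEWPSA-NH2 (250 nM) with 100 μM ATP in HEPES pH 7.0/MgCl2 buffer, 2% DMSO, 30 min at room temperature. EDTA stop, then HTRF detection (streptavidin-XL665, Eu anti-phosphotyrosine) after 1 h; 665/620 ratio read.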

[2] = system: cultured human mast cells; test: Degranulation inhibition test using cultured human mast cells (IgE cross-linking, β-Hexosaminidase release); format: cell-based; conditions: Mast cell, cultured human mast cells, read-out: human degranulation ave. IC50
Experimental: Degranulation Inhibition Test Using Cultured Human Mast Cells
(1) Separation of Hematopoietic Stem Cells;
After 10 to 60 mL of umbilical cord blood collected with heparin was diluted with an equivalent amount of buffer (0.5% BSA, 2 mM EDTA/PBS-), it was superposed on Ficoll-Paque (Amersham Pharmacia Biotech) (Ficoll/Blood (1:2)) and mononuclear leukocyte fraction was collected by centrifuging it at 400 G (1350 rpm) 4° C. for 30 minutes. After centrifugal washing (1500 rpm, 5 min, 4° C.×3) with buffer, the number of cells was counted and 0.1 mL of CD34 Progenitor Cell Isolation Kit (Miltenyi Biotec), Reagent A1 (Fc blocking) was added for 1×10^8 cells. After agitation, 0.1 mL of Reagent A2 (CD34 antibody-hapten) was added (final volume 0.5 mL/1×10^8 cells) and incubated at 9° C. for further 15 minutes after agitation. After centrifugal washing (1500 rpm, 5 min, 4° C.×3), it was resuspeded in a buffer (0.4 mL) and 0.1 mL of Reagent B (anti hapten antibody-microbeads) was added and agitated (final volume 0.5 mL/1×10^8 cells) and incubated at 9° C. for further 15 minutes. After centrifugal washing (1500 rpm, 5 min, 4° C.×2), it was resuspeded in a buffer (0.5 mL) and loaded on CS column (Miltenyi Biotec) set in MACS (MAgnetic Cell Sorting system; Miltenyi Biotec, Daiichi Pure Chemicals) and washed with 30 mL of buffer to remove CD34^− cells. The column was separated from MACS and eluted with 30 mL of buffer and CD34^+ cells bound to the column were collected and used as a hematopoietic stem cell population.
(2) Acquisition of Human Mast Cells by Long-Term Culturing of Hematopoietic Stem Cells;
The CD34^+ cells separated in (1) were resuspended in Iscove's Modified Dulbecco's Medium (IMDM, Gibco) containing human (rh)SCF (1 μg/mL, Peprotech), rhIL-6 (0.5 μg/mL, Peprotech), rhIL-3 (10 ng/mL, Peprotech), 1% Insulin-Transferrin (Gibco), 5×10^−5M 2-ME (Gibco), 0.1% BSA (Sigma) in a density of 1×10^6 cells/ml and disseminated on 24-well culture plate with a dose of 0.1 mL/well and 0.9 ml of IMDM (Methocult SF^BIT StemCell technology) containing 0.9% methyl cellulose was added and culturing was started. The above culture medium (excluding methyl cellulose) was added in a week and after that 100 μL/well of the above culture medium (further excluding IL-3) was added at an interval of every once a week so that cells were diluted to maintain 10^5 cells/mL/well order and cultured more than about 8 weeks and thereby human culture mast cells were obtained.
(3) Expression Enhancement of FcεRI and Inhibition Test IgE Cross-Linking Stimulating Degranulation;
rhIL-4 (final concentration 1 ng/mL, R & D) and Homo sapiens(h) IgE (final concentration 0.5 μg/mL, CHEMICON) were added to the obtained human culture mast cells, and they were incubated for 5 days to enhance the expression of FcεRI. After incubation, cells were collected and, after centrifugal washing (IMDM), they were disseminated on 96-well culture plate in 5×10^4 cells/80 μL/well.
10 μL of a compound 10-fold diluted with IMDM after dissolved in DMSO (DMSO final concentration 0.1%) was added and reacted at 37° C. for 10 minutes. Further, 10 μL of anti-hIgE Ab (CHEMICON) adjusted to 100 μg/mL (final concentration 10 μg/mL) was added and degranulation was caused by being stimulated at 37° C. for 30 minutes. After centrifugation, 50 μL/well of the supernatant was collected and stored at −40° C. untill the quantity of degranulation was measured. The measurement of quantity of degranulation was performed using enzymatic activity of β-Hexosaminidase contained in the granulates as an index. That is, an equivalent amount of p-nitrophenyl-N-acetyl-β-D-glucosaminide (1 mM) (containing 0.1% Triton X-100) which is a substrate of β-Hexosaminidase was added to 50 μL of the culture filtrate, and after reacted at 37° C. for 2 hours, the reaction was terminated by using 100 μL of Carbonate buffer (0.1M, pH 10). […]

[3] = HTRF, 100 μM ATP, 30 min room temperature, average, read-out: sykHTRF ave IC50
[4] = anti-hIgE stimulation, β-Hexosaminidase index, average
[5] = Tables 1-x, compounds A, read-out: sykHTRF ave IC50
[6] = Tables 2-x, thiophene compounds B, read-out: sykHTRK ave IC50
[7] = Tables 2-x, thiophene compounds B

Row | pIC50 [1, 3] | pIC50 [2, 4] | pIC50 [1, 5] | Structure (SMILES) | also measured
1 | > 7.00 | < 6.00 |  | Cc1ccnc(Nc2cccc(-c3cnc(CCCCC(=O)O)s3)n2)c1 [Compound A-69, 5-{5-[6-(4-methylpyridin-2-ylamino)pyridin-2-yl]thiazol-2-yl}pentanoic acid] | 
2 | 6.00 to 7.00 | < 6.00 |  | Cc1ccnc(Nc2cccc(-c3cnc(C4CCN(CC(=O)O)CC4)s3)n2)c1 [Compound A-185] | 
3 | 6.00 to 7.00 | < 6.00 |  | Cc1ccnc(Nc2cccc(-c3cnc(Cc4cccs4)s3)n2)c1 [Compound A-232] | 
4 | > 7.00 | 6.00 to 7.00 |  | Cc1ccnc(Nc2cccc(-c3cnc(N4CCC(CC(=O)O)CC4)s3)n2)c1 [Compound A-15, (1-{5-[6-(4-methylpyridin-2-ylamino)pyridin-2-yl]thiazol-2-yl}piperidin-4-yl)acetic acid dihydrochloride] | 
5 | < 6.00 | < 6.00 |  | CCOC(=O)CC(C)(C)c1ncc(-c2cccc(Nc3cc(C)ccn3)n2)s1 [Compound A-144] | 
6 | 6.00 to 7.00 | < 6.00 |  | Cc1ccnc(Nc2cccc(-c3cnc(CC(C)(C)CC(=O)O)s3)n2)c1 [Compound A-157] | 
7 | 6.00 to 7.00 | < 6.00 |  | Cc1ccnc(Nc2cccc(-c3cnc([C@@H](N)C(C)C)s3)n2)c1 [Compound A-37] | 
8 |  |  | > 7.00 | Cc1ccnc(Nc2cccc(-c3cnc(N4CCC[C@H]4C(=O)NCC(F)(F)F)s3)n2)c1 [Compound A-530, N-(2,2,2-trifluoroethyl)-(S)-1-{5-[6-(4-methylpyridin-2-ylamino)pyridin-2-yl]thiazol-2-yl}pyrrolidine-2-carboxamide] | pIC50 ([2]; Tables 1-x, compounds A): 6.00 to 7.00
9 | 6.00 to 7.00 | 6.00 to 7.00 |  | Cc1ccnc(Nc2cccc(-c3cnc(CCNC(=O)CO)s3)n2)c1 [Compound A-257] | 
10 |  | 6.00 to 7.00 |  | CC(=O)Nc1ncc(-c2cccc(Nc3cc(C)ccn3)n2)s1 [Compound A-23] | 
11 |  |  | > 7.00 | CC(=O)N(Cc1ccc(C(=O)O)cc1)Cc1ncc(-c2cccc(Nc3cc(C)ccn3)n2)s1 [Compound A-709, 4-[(N-acetyl-N-{5-[6-(4-methylpyridin-2-ylamino)pyridin-2-yl]thiazol-2-ylmethyl}amino)methyl]benzoic acid] | 
12 |  |  | > 7.00 | Cc1ccnc(Nc2cccc(-c3cnc(CN(C)CC(N)=O)s3)n2)c1 [Compound A-697, 2-(N-methyl-N-{5-[6-(4-methylpyridin-2-ylamino)pyridin-2-yl]thiazol-2-ylmethyl}amino)acetamide] | 

Second part, the compound before the results:

Row | Structure (SMILES) | pIC50 [1, 3] | pIC50 [2, 4] | pIC50 [1, 5] | also measured
13 | CCOC(=O)c1nc([C@H](C)N)sc1-c1cccc(Nc2cc(C)ccn2)n1 [Compound A-101] | < 6.00 | < 6.00 |  | 
14 | Cc1ccnc(Nc2cccc(-c3cnc(C4CCN(S(=O)(=O)C(C)C)CC4)s3)n2)c1 [Compound A-398] |  |  | 6.00 to 7.00 | pIC50 ([2]; Tables 1-x, compounds A): < 6.00
15 | Cc1ccnc(Nc2cccc(-c3cnc(N(C)C4CCN(C(=O)CO)CC4)s3)n2)c1 [Compound A-459, 2-hydroxy-1-[4-(N-methyl-N-{5-[6-(4-methylpyridin-2-ylamino)pyridin-2-yl]thiazol-2-yl}amino)piperidin-1-yl]ethanone] |  |  | > 7.00 | pIC50 ([2]; Tables 1-x, compounds A): 6.00 to 7.00
16 | CCOC(=O)CCC(=O)N[C@@H](C)c1ncc(-c2cccc(Nc3cc(C)ccn3)n2)s1 [Compound A-120] | < 6.00 | < 6.00 |  | 
17 | CC(=O)c1ccc(-c2cccc(Nc3cc(CO)ccn3)n2)s1 [Compound B-96] |  |  |  | pIC50 [1, 6]: 6.00 to 7.00; pIC50 [2, 7]: < 6.00
18 | Cc1ccnc(Nc2cccc(-c3cnc([C@H](C)NC(=O)C4CCC(O)CC4)s3)n2)c1 (stereo partly shown) [Compound A-349] | 6.00 to 7.00 | < 6.00 |  | 
19 | Cc1ccnc(Nc2cccc(-c3ccc(C(=O)NCC(=O)O)s3)n2)c1 [Compound B-99] |  |  |  | pIC50 [1, 6]: 6.00 to 7.00; pIC50 [2, 7]: < 6.00
20 | Cc1ccnc(Nc2cccc(-c3cnc(CN4CCNCC4)s3)n2)c1 [Compound A-194, N-(4-methylpyridin-2-yl)-N-{6-[2-(piperazin-1-ylmethyl)thiazol-5-yl]pyridin-2-yl}amine] | > 7.00 | 6.00 to 7.00 |  | 
21 | O=C(O)[C@H]1CC[C@H](c2ncc(-c3cccc(Nc4cc(Cl)ccn4)n3)s2)CC1 [Compound A-204, trans-4-{5-[6-(4-chloropyridin-2-ylamino)pyridin-2-yl]thiazol-2-yl}cyclohexanecarboxylic acid] | > 7.00 | 6.00 to 7.00 |  | 
22 | Cc1ccnc(Nc2cccc(-c3cnc([C@H](N)c4ccc(OCc5ccccc5)cc4)s3)n2)c1 [Compound A-150] | 6.00 to 7.00 | < 6.00 |  | 
23 | CNC(=O)Cc1ccnc(Nc2cccc(-c3cnc([C@@H]4CCC(=O)N4)s3)n2)c1 [Compound A-342] | < 6.00 | < 6.00 |  | 
24 | Cc1ccnc(Nc2cccc(-c3cnc([C@@H]4CNC(=O)O4)s3)n2)c1 [Compound A-409, (S)-5-{5-[6-(4-methylpyridin-2-ylamino)pyridin-2-yl]thiazol-2-yl}oxazolidin-2-one] |  |  | > 7.00 | pIC50 ([2]; Tables 1-x, compounds A): > 7.00
25 | CO/N=C(\C)c1ccc(-c2cccc(Nc3cc(N(C)C)ncn3)n2)s1 [Compound B-32] |  |  |  | pIC50 [1, 6]: < 6.00; pIC50 [2, 7]: < 6.00
26 | CC(=O)Oc1ccc(CC(OC(C)=O)c2ncc(-c3cccc(Nc4cc(C)ccn4)n3)s2)cc1 (stereo not shown) [Compound A-360] | < 6.00 | < 6.00 |  | 
27 | Cc1ccnc(Nc2cccc(-c3cnc(CN(C)CC(=O)N(C)C)s3)n2)c1 [Compound A-688] |  |  | 6.00 to 7.00 | 
28 | Cc1ccnc(Nc2cccc(-c3ccc(C(=O)N(C)Cc4ccc(C(=O)O)cc4)s3)n2)c1 [Compound B-122] |  |  |  | pIC50 [1, 6]: 6.00 to 7.00
29 | Cc1ccnc(Nc2cccc(-c3cnc(CCc4ccc(OCc5ccccc5)cc4)s3)n2)c1 [Compound A-133] | < 6.00 |  |  | 
30 | Cc1ccnc(Nc2cccc(-c3ccc(C(O)C(F)(F)C(=O)O)s3)n2)c1 (stereo not shown) [Compound B-109, 2,2-difluoro-3-hydroxy-3-{5-[6-(4-methylpyridin-2-ylamino)pyridin-2-yl]thiophen-2-yl}propionic acid] |  |  |  | pIC50 [1, 6]: > 7.00
31 | Cc1ccnc(Nc2cccc(-c3cnc(N4CCC(C(=O)N5CCNC(=O)C5)CC4)s3)n2)c1 [Compound A-453, 4-(1-{5-[6-(4-methylpyridin-2-ylamino)pyridin-2-yl]thiazol-2-yl}piperidine-4-carbonyl)piperazin-2-one] |  |  | > 7.00 | 
32 | CNC(=O)[C@@H]1CCCN1Cc1ncc(-c2cccc(Nc3cc(C)ccn3)n2)s1 [Compound A-666] |  |  | 6.00 to 7.00 | 
33 | CC(=O)c1ccc(-c2cccc(N(C)c3cc(C)ccn3)n2)s1 [Compound B-90] |  |  |  | pIC50 [1, 6]: < 6.00
34 | Cc1ccnc(Nc2cccc(-c3cnc(N(C)C4CCC(C(=O)NCCO)CC4)s3)n2)c1 (stereo not shown) [Compound A-493, N-(2-hydroxyethyl)-4(N′-methyl-N′-{5-[6-(4-methylpyridin-2-ylamino)pyridin-2-yl]thiazol-2-yl}amino)cyclohexanecarboxamide] |  |  | > 7.00 | 
35 | Cc1ccnc(Nc2cccc(-c3cnc(N4CCC[C@H]4C(=O)NS(C)(=O)=O)s3)n2)c1 [Compound A-646] |  |  | 6.00 to 7.00 | 
